Here are results for 48 molecules from PubChem BioAssay AID624344 (Sanford-Burnham Center for Chemical Genomics, 2012).

Usually IC50 stands for the concentration needed to halve the response being measured.

Active and inactive are the calls of the source. No rule for the calls is given here. Some results are limits rather than exact numbers.

Test [1] is described as follows: NFkB reporter suppression in cystic fibrosis bronchial cells – cell-based, uHTS hits, panel, cytotoxicity readout, dose response (AID 624344). Conditions: CF bronchial epithelial cells, PAF-induced NFkB reporter inhibition; with PAF, mean of runs.
Test [2] deals with Cytotoxicity. The description is as above. Conditions: CF bronchial epithelial cells, mean of runs.

In the case of `COc1cc2c(c(OC)c1OC)-c1ccc(SC)c(=O)cc1C(NC(=O)C(F)(F)F)CC2` (stereo unspecified), the IC50 result in test [1] is “inactive”. Also, the IC50 in test [2] was > 79 µM (inactive).
Taken in the same sequence, the figures for `Cn1nnnc1Sc1ncnc2scc(-c3ccc[nH]3)c12` were 14.7 µM and 6.95 µM.
Taken in the same sequence, the figures for `CN1CCC(OC(=O)c2cc3cc(Cl)cc(Cl)c3oc2=O)CC1` were 1.64 µM and 44.5 µM.
Taken in the same sequence, the figures for `COc1ccc(-c2cc(C(F)(F)F)nc(S(=O)(=O)CCCC(=O)Nc3cccnc3Cl)n2)cc1OC` were 1.44 µM and 1.32 µM.
For the molecule `CCN1CCN(Cc2ccc(NC(=O)c3ccc(C)c(NC(=O)c4cccc5[nH]ccc45)c3)cc2C(F)(F)F)CC1`, the values for the IC50 in test [1] and in test [2] were 7.33 µM and 47.7 µM, respectively.
Taken in the same sequence, the figures for `COc1cc(C(=O)Nc2nnc(-c3sccc3C)s2)cc(OC)c1OC` were “inactive” and 4.33 µM.
For `COc1ccc(CNc2ncnc3ccccc23)cc1`, in that order: 15.3 µM and 59.5 µM (inactive).
Take `Nc1nccc(SCc2ccc(Cl)cc2Cl)n1`: the IC50 is 14.3 µM in test [1] and > 79 µM (inactive) in test [2].
For `Cc1ccc(S(=O)(=O)Nc2ccc3cc([N+](=O)[O-])ccc3c2[N+](=O)[O-])cc1`, in that order: 3.17 µM and 4.15 µM.
For `C/C(=N\Nc1cc(N2CCOCC2)ncn1)c1cccc([N+](=O)[O-])c1`, in that order: 4.21 µM and 14.4 µM.
For `COc1cc(CN(C)c2ccc(S(=O)(=O)N3CCCC3)cn2)ccc1OC(F)F`, in that order: 0.453 µM and > 79 µM (inactive).
Consider `COc1cccc2sc(N(CCCN(C)C)C(=O)CCS(=O)(=O)c3ccccc3)nc12`, for which the IC50 was 2.34 µM in test [1] and 4.84 µM in test [2].
In the case of `CC(C)C[C@H](CO)Nc1nc(Nc2cccc(Cl)c2)c2ncn(C(C)C)c2n1`, the results for the 50% inhibitory concentration (IC50) in test [1] and in test [2] were 5.12 µM and 36.2 µM, respectively.
For `COc1ccc(-n2nnnc2C(c2cccs2)N2CCC(n3c(=O)[nH]c4ccccc43)CC2)cc1` (stereo unspecified), in that order: 5.05 µM and 14.2 µM.
For `O=S1(=O)CCC(NC(=S)SCCOc2ccccc2)C1` (stereo unspecified), in that order: 4.58 µM and 20.1 µM.
For `COc1cccc(CN(C)C(=O)C(CCSC)NS(=O)(=O)c2ccc3c(c2)OCCO3)c1OC` (stereo unspecified), the IC50 in test [1] is 3.4 µM; in test [2], 13.3 µM.
In the case of `N#Cc1c(-c2ccc(Cl)cc2)n(O)c2ccccc12`, the 50% inhibitory concentration (IC50) in test [1] is 2.85 µM; in test [2], 3.98 µM.
For `COC(=O)c1ccc2c(c1)C(C)(C)C(/C=C/c1ccccc1O)=[N+]2C`, in that order: 5.88 µM and 35.4 µM.
For `Nc1ncnc2c1c(-c1ccc(Oc3ccccc3)cc1)cn2C1CCCC1`, in that order: 6.66 µM and 11.3 µM.
For `CN(C)CCCN(C(=O)CCOc1ccccc1)c1nc2c(F)cccc2s1`, in that order: 5.63 µM and 24.6 µM.
With `O=c1[nH]c2ccccc2n1C1CCN(C(c2cc3ccccc3o2)c2nnnn2-c2ccc3c(c2)OCCO3)CC1` (stereo unspecified), the IC50 in test [1] was 3.2 µM; in test [2], 10.2 µM.
For `CC1CCCCN1c1ncnc(N)c1[N+](=O)[O-]` (stereo unspecified), in that order: 3.66 µM and > 79 µM (inactive).
Taken in the same sequence, the figures for `CCOc1cccc(-c2nnc3sc(C4CCCCC4)nn23)c1` were 2.88 µM and 33.3 µM.
In the case of `O=C(Nc1ccc(F)cc1)Nc1ccc(N2CCCC2)c(S(=O)(=O)Nc2ccccc2Cl)c1`, the IC50 in test [1] was 7.2 µM; in test [2] it was 42.5 µM.
Consider `COc1nc(N)c(C#N)c(-c2ccc(N(C)CCC#N)cc2)c1C#N`, for which the IC50 in test [1] is 3.31 µM; in test [2], > 79 µM (inactive).
For `CCN1CCN(Cc2ccc(NC(=O)c3ccc(C)c(NC(=O)c4cc(-c5ccc(Br)cc5)n[nH]4)c3)cc2C(F)(F)F)CC1`, in that order: 2.77 µM and 42.5 µM.
For `CC(NC(=O)OCc1ccccc1)C(=O)Oc1cc2oc(=O)cc(-c3ccccc3)c2cc1Cl` (stereo unspecified), in that order: 1.34 µM and 27.9 µM.
Taken in the same sequence, the figures for `Cc1nnc(NC(=O)Nc2ccc(Cl)c(Cl)c2)s1` were 2.78 µM and 15.3 µM.
As for `CC1CCN(CC(CS(=O)(=O)c2ccc([N+](=O)[O-])cc2)N2CCC(C)CC2)CC1` (stereo unspecified), the figures for the IC50 in test [1] and in test [2] were 2.44 µM and 3.57 µM, respectively.
For `Cc1[nH]nc2c1-c1nc3ccccc3nc1C(C)(C)C2`, in that order: 10.4 µM and > 79 µM (inactive).
For `Cc1ccc(CNc2ncnc3ccc(-c4ccc(CO)o4)cc23)o1`, in that order: 0.898 µM and 3.77 µM.
For `CC[C@@H](C(=O)[C@@H](C)[C@@H](O)[C@H](C)[C@@H]1O[C@@H]([C@@H](CC)C(=O)O)CC[C@@H]1C)[C@H]1O[C@]2(C=C[C@@H](O)[C@]3(CC[C@@](C)([C@H]4CC[C@](O)(CC)[C@H](C)O4)O3)O2)[C@H](C)C[C@@H]1C`, in that order: 0.399 µM and 2.36 µM.
Turning to `Cc1ccsc1CN(C)c1ncnc2ccc(-c3ccoc3)cc12`, the values for the IC50 in test [1] and in test [2] were 0.376 µM and 47 µM, respectively.
Taken in the same sequence, the figures for `CC(=O)OC1(C)CC(C)C(=O)C(C(O)CC2CC(=O)NC(=O)C2)C1` (stereo unspecified) were less than 0.15 µM and 0.177 µM.
Taken in the same sequence, the figures for `CCC(C)Oc1cc(-c2ccnc(Nc3cccc(Cl)c3)n2)ccn1` (stereo unspecified) were 3.28 µM and 5.62 µM.
For `COc1ccc(C2=Nn3c(nnc3-c3ccncc3)SC2)cc1`, the IC50 was 2.72 µM in test [1] and 40 µM in test [2].
For `Cc1ccc(NC(=O)Nc2nnc(-c3ccncc3)s2)cc1`, in that order: 5.53 µM and 11 µM.
For `CC(=C/c1ccccc1)/C=N/n1c(-c2ccncc2)n[nH]c1=S`, in that order: 0.43 µM and 65.2 µM (inactive).
For `CC(C)CNC(=O)c1coc(=O)c(Br)c1`, in that order: 4.35 µM and 8.73 µM.
On to `CC1C(=O)N(Cc2cn(Cc3ccco3)nn2)CCS(=O)(=O)N1Cc1ccc(-c2ccccc2C(F)(F)F)cc1` (stereo unspecified), for which the IC50 in test [1] is 14 µM; in test [2] it was 57.4 µM (inactive).
Taken in the same sequence, the figures for `COc1ccccc1-n1nnnc1S(=O)(=O)Cc1ccc(Cl)cc1` were 1.28 µM and 2.44 µM.
Taken in the same sequence, the figures for `CNC(=O)c1ccc(NC(=O)C2CCN(c3ncnc4sc(C)c(C)c34)CC2)cc1` were 5.49 µM and > 79 µM (inactive).
Taken in the same sequence, the figures for `COc1ccc(-c2cn[nH]c2-c2ccc(OC)cc2)cc1` were 2.53 µM and 63.5 µM (inactive).
In the case of `Cn1ncc2c(O/N=C(\N)c3ccc(C(C)(C)C)cc3)ncnc21`, the IC50 in test [1] was 8.28 µM; in test [2], 34.9 µM.
Taken in the same sequence, the figures for `COc1cccc(/C=N/n2c(C3CCCCC3)n[nH]c2=S)c1` were 3.97 µM and 33.7 µM.
Taken in the same sequence, the figures for `CN(C)c1ccnc2sc3c(=O)n(Cc4ccccc4)cnc3c12` were 1.27 µM and > 79 µM (inactive).
For `Cc1nc2sc(C(N)=O)c(N)c2c2c1CCCC2`, in that order: 1.18 µM and 64 µM (inactive).
Turning to `O=C(NNc1ccccc1Br)C(O)(c1cccc(C(F)(F)F)c1)c1cccc(C(F)(F)F)c1`, the IC50 was 5.72 µM in test [1] and 7.73 µM in test [2].
